{"source": "patent US20250170140A1", "about": "“PHARMACEUTICAL COMPOSITION FOR PREVENTING OR TREATING CANCER COMPRISING CARNITINE ACYLCARNITINE CARRIER INHIBITOR AND PEROXISOMAL BETA OXIDATION INHIBITOR” (priority 2021, published 2025)", "type_in_all_cases": "cell-based", "key": {"SK-MEL-5": {"tested_on": "SK-MEL-5", "experiment": "SRB assay, melanoma cell line SK-MEL-5", "description": "(§1) As a comparison, omeprazole (KN510) and trimetazidine (KN713), a 3-ketoacyl CoA thiolase inhibitor, were co-treated. […] After cell inoculation, 96-well cell culture plates were incubated for 24 hours before the addition of experimental drugs. […] The cells were then incubated in a CO2 incubator for 48 hours, after which the assay was terminated by the addition of cold TCA. Cells were fixed in situ by gently adding 50 μl of cold 50% (w/v) TCA (final concentration: 10% TCA) and incubated at 4° C. for 60 min. The supernatant was discarded, and the plate was washed five times with distilled water and air dried. Sulforhodamine B (SRB) solution (100 μl) of 0.4% (w/v) in 1% acetic acid was added to each well, and the plate was left at room temperature for 10 min. After staining, unbound dye was removed by washing five times with 1% acetic acid, and the plate was air-dried. The bound dye was then solubilized with 10 mM trizma base, and the absorbance was recorded at 515 nm using an automated plate reader. […] The predicted synergistic activity of a combination of the present invention can be calculated using the Colby Equation in Equation 1 (S.R. Colby, Weeds, 1967, pp. 15, 20-22): In the present invention, the actual measure of anti-cancer activity of the combination treatment was the inhibition rate of cancer cell growth (%), and the predicted value (E) of the combination treatment was measured by substituting it into the above Colby Equation."}, "UACC-62 cells": {"tested_on": "UACC-62 cells", "experiment": "SRB assay, melanoma cell line UACC-62", "description": "as §1"}, "H1975 cells": {"tested_on": "H1975 cells", "experiment": "SRB assay, lung cancer cells H1975", "description": "as §1"}, "PC-3 cells": {"tested_on": "PC-3 cells", "experiment": "SRB assay, prostate cancer cells PC-3", "description": "as §1"}, "MIA PaCa-2": {"tested_on": "MIA PaCa-2", "experiment": "SRB assay, cancer cell growth, pancreatic cancer cell line MIA PaCa-2", "details": "for inhibition at 5 µM / inhibition at 10 µM: read-out: Inhibition rate of cancer cell growth (%) (Actual value)", "description": "as §1, with “20-22): α and β are the measured anti-cancer activity of each compound alone, and E is the predicted anti-cancer activity of a mixture of α and β as a prediction.” for “20-22):”"}, "MDA-MB-231 cells": {"tested_on": "MDA-MB-231 cells", "experiment": "SRB assay, breast cancer cell line MDA-MB-231", "description": "as §1"}, "SF295 cells": {"tested_on": "SF295 cells", "experiment": "SRB assay, glioblastoma cell line SF295", "description": "as §1"}, "SK-HEP-1 cells": {"tested_on": "SK-HEP-1 cells", "experiment": "SRB assay, liver cancer cell line SK-HEP-1", "description": "as §1"}, "SK-OV-3 cells": {"tested_on": "SK-OV-3 cells", "experiment": "SRB assay, ovarian cancer cells SK-OV-3", "description": "as §1"}, "[1]": {"details": "Homo sapiens, KN714 5 μM, read-out: Inhibition rate of cancer cell growth (%) (Actual value)"}, "[2]": {"details": "Homo sapiens, KN714 10 μM, read-out: Inhibition rate of cancer cell growth (%) (Actual value)"}}, "note": "Like-named read-outs stand apart in the source and are kept apart here.", "data": [{"smiles": "CSc1ccc2c(c1)N(CCC1CCCCN1C)c1ccccc1S2", "note": "(centres unmarked) [KN714, 10-[2-(1-methyl-2-piperidyl)ethyl]-2-(methylthio)phenothiazine]", "values": [{"measurement": "inhibition at 5 µM", "setting": "SK-MEL-5; [1]", "value": 19.3, "unit": "%"}, {"measurement": "inhibition at 10 µM", "setting": "SK-MEL-5; [2]", "value": 124, "unit": "%"}, {"measurement": "Cancer cell growth rate Average (%)", "setting": "SK-MEL-5; KN714 5 μM", "value": 80.69, "unit": "%"}, {"measurement": "Cancer cell growth rate Average (%)", "setting": "SK-MEL-5; KN714 10 μM", "value": "−23.56", "unit": "%"}, {"measurement": "inhibition at 5 µM", "setting": "UACC-62 cells; [1]", "value": 10.6, "unit": "%"}, {"measurement": "inhibition at 10 µM", "setting": "UACC-62 cells; [2]", "value": 60.5, "unit": "%"}, {"measurement": "Cancer cell growth rate Average (%)", "setting": "UACC-62 cells; KN714 5 μM", "value": 89.43, "unit": "%"}, {"measurement": "Cancer cell growth rate Average (%)", "setting": "UACC-62 cells; KN714 10 μM", "value": 39.54, "unit": "%"}, {"measurement": "inhibition at 5 µM", "setting": "H1975 cells; Homo sapiens, NCI-H1975, KN714 5 μM, read-out: Inhibition rate of cancer cell growth (%) (Actual value)", "value": -13.9, "unit": "%"}, {"measurement": "inhibition at 10 µM", "setting": "H1975 cells; Homo sapiens, NCI-H1975, KN714 10 μM, read-out: Inhibition rate of cancer cell growth (%) (Actual value)", "value": 8.1, "unit": "%"}, {"measurement": "Cancer cell growth rate Average (%)", "setting": "H1975 cells; KN714 5 μM", "value": 113.89, "unit": "%"}, {"measurement": "Cancer cell growth rate Average (%)", "setting": "H1975 cells; KN714 10 μM", "value": 91.90, "unit": "%"}, {"measurement": "inhibition at 5 µM", "setting": "PC-3 cells; [1]", "value": 18.1, "unit": "%"}, {"measurement": "inhibition at 10 µM", "setting": "PC-3 cells; [2]", "value": 53, "unit": "%"}, {"measurement": "Cancer cell growth rate Average (%)", "setting": "PC-3 cells; KN714 5 μM", "value": 81.94, "unit": "%"}, {"measurement": "Cancer cell growth rate Average (%)", "setting": "PC-3 cells; KN714 10 μM", "value": 47.00, "unit": "%"}, {"measurement": "inhibition at 5 µM", "setting": "MIA PaCa-2; Homo sapiens, MIA PaCa-2, MIA PaCa-2 (Example 11), KN714 5 μM", "value": 23.4, "unit": "%"}, {"measurement": "inhibition at 10 µM", "setting": "MIA PaCa-2; Homo sapiens, MIA PaCa-2, MIA PaCa-2 (Example 11), KN714 10 μM", "value": 106, "unit": "%"}, {"measurement": "inhibition at 5 µM", "setting": "MIA PaCa-2; Homo sapiens, MIA PaCa-2, MIA PaCa-2, Example 1-3, Table 4, KN714 5 μM", "value": 31.4, "unit": "%"}, {"measurement": "inhibition at 10 µM", "setting": "MIA PaCa-2; Homo sapiens, MIA PaCa-2, MIA PaCa-2, Example 1-3, Table 4, KN714 10 μM", "value": 105, "unit": "%"}, {"measurement": "GI50", "setting": "MIA PaCa-2; Homo sapiens, MIA PaCa-2, 48 hours, read-out: GI50 (Half maximal growth inhibition concentration)", "value": 1900, "unit": "nM"}, {"measurement": "Cancer cell growth rate Average (%)", "setting": "MIA PaCa-2; MIA PaCa-2 (Example 11), KN714 5 μM", "value": 76.62, "unit": "%"}, {"measurement": "Cancer cell growth rate Average (%)", "setting": "MIA PaCa-2; MIA PaCa-2 (Example 11), KN714 10 μM", "value": "−5.93", "unit": "%"}, {"measurement": "Cancer cell growth rate Average (%)", "setting": "MIA PaCa-2; MIA PaCa-2, Conc. 10^−5M, Table 1", "value": "−10.55", "unit": "%"}, {"measurement": "Cancer cell growth rate Average (%)", "setting": "MIA PaCa-2; MIA PaCa-2, Conc. 10^−6M, Table 1", "value": 94.73, "unit": "%"}, {"measurement": "Cancer cell growth rate Average (%)", "setting": "MIA PaCa-2; MIA PaCa-2, Conc. 10^−7M, Table 1", "value": 95.13, "unit": "%"}, {"measurement": "Cancer cell growth rate Average (%)", "setting": "MIA PaCa-2; MIA PaCa-2, Conc. 10^−8M, Table 1", "value": 90.56, "unit": "%"}, {"measurement": "Cancer cell growth rate Average (%)", "setting": "MIA PaCa-2; MIA PaCa-2, Conc. 10^−9M, Table 1", "value": 97.03, "unit": "%"}, {"measurement": "Cancer cell growth rate Average (%)", "setting": "MIA PaCa-2; MIA PaCa-2, Conc. 10^−10M, Table 1", "value": 97.11, "unit": "%"}, {"measurement": "Cancer cell growth rate Average (%)", "setting": "MIA PaCa-2; MIA PaCa-2, Example 1-2, Table 2, KN714 5 μM", "value": 68.62, "unit": "%"}, {"measurement": "Cancer cell growth rate Average (%)", "setting": "MIA PaCa-2; MIA PaCa-2, Example 1-2, Table 2, KN714 10 μM", "value": "−5.25", "unit": "%"}, {"measurement": "inhibition at 5 µM", "setting": "MDA-MB-231 cells; [1]", "value": 9.36, "unit": "%"}, {"measurement": "inhibition at 10 µM", "setting": "MDA-MB-231 cells; [2]", "value": 29.8, "unit": "%"}, {"measurement": "Cancer cell growth rate Average (%)", "setting": "MDA-MB-231 cells; KN714 5 μM", "value": 90.64, "unit": "%"}, {"measurement": "Cancer cell growth rate Average (%)", "setting": "MDA-MB-231 cells; KN714 10 μM", "value": 70.20, "unit": "%"}, {"measurement": "inhibition at 5 µM", "setting": "SF295 cells; Homo sapiens, SF-295, KN714 5 μM, read-out: Inhibition rate of cancer cell growth (%) (Actual value)", "value": 16.5, "unit": "%"}, {"measurement": "inhibition at 10 µM", "setting": "SF295 cells; Homo sapiens, SF-295, KN714 10 μM, read-out: Inhibition rate of cancer cell growth (%) (Actual value)", "value": 75.5, "unit": "%"}, {"measurement": "Cancer cell growth rate Average (%)", "setting": "SF295 cells; KN714 5 μM", "value": 83.54, "unit": "%"}, {"measurement": "Cancer cell growth rate Average (%)", "setting": "SF295 cells; KN714 10 μM", "value": 24.47, "unit": "%"}, {"measurement": "inhibition at 5 µM", "setting": "SK-HEP-1 cells; Homo sapiens, SK-HEP1, KN714 5 μM, read-out: Inhibition rate of cancer cell growth (%) (Actual value)", "value": 17.6, "unit": "%"}, {"measurement": "inhibition at 10 µM", "setting": "SK-HEP-1 cells; Homo sapiens, SK-HEP1, KN714 10 μM, read-out: Inhibition rate of cancer cell growth (%) (Actual value)", "value": 40.1, "unit": "%"}, {"measurement": "Cancer cell growth rate Average (%)", "setting": "SK-HEP-1 cells; KN714 5 μM", "value": 82.37, "unit": "%"}, {"measurement": "Cancer cell growth rate Average (%)", "setting": "SK-HEP-1 cells; KN714 10 μM", "value": 59.94, "unit": "%"}, {"measurement": "inhibition at 5 µM", "setting": "SK-OV-3 cells; [1]", "value": 7.82, "unit": "%"}, {"measurement": "inhibition at 10 µM", "setting": "SK-OV-3 cells; [2]", "value": 37.6, "unit": "%"}, {"measurement": "Cancer cell growth rate Average (%)", "setting": "SK-OV-3 cells; KN714 5 μM", "value": 92.18, "unit": "%"}, {"measurement": "Cancer cell growth rate Average (%)", "setting": "SK-OV-3 cells; KN714 10 μM", "value": 62.36, "unit": "%"}]}]}
